Series [1] can be described thus: Polymerization and depolymerization of ethanolic precursor on exposure to water or aqueous phosphate buffer. Type of series: physicochemical. Particulars: 400 mg/mL ethanolic solution added to aqueous phosphate buffer. The procedure:
An ethanolic solution of pure α-lipoic acid L1 was prepared at 400 mg/mL and added to an aqueous phosphate buffer. A metastable sticky polymer was obtained, but within a few minutes (<5 min), the sticky polymer converted to a solid monomeric precipitate with no apparent adhesive property.
At any time prior to or after gelation of the precursor solution, exposure to water triggers dithiolane polymerization which can be exploited for the purposes of isolating a polymer adhesive or for adhering objects together. […] We believe α-lipoic acid undergoes self-catalyzed polymerization followed by stabilization with NHS esters. Nonetheless, the aqueous polymerization appears to be less sensitive and extremely fast irrespective of the solution concentrations. We believe that due to the amphiphilic nature of the α-lipoic acid, it undergoes micelle-like self-reorganization in contact with water, which locally concentrates the cyclic backbone to accelerate the polymerization rate. Furthermore, detailed ^1H NMR experiments of diluted ethanolic solution of the mixtures show excellent stability of the NHS esters even at an extended period. Therefore, this opens the possibility of an on-demand aqueous polymerization from a precursor ethanolic solution, which we considered to be advantageous for translation in medical and other underwater applications. […]

A short description of series [2]: Gelation of ethanolic adhesive precursor solution. Type of series: physicochemical. Particulars: pure solution at similar concentration, extended periods of time.
Series [3] is described as follows: Storage stability of precursor or polymer against polymerization or depolymerization. It is filed as physicochemical. Particulars: coated and heated at 100° C for 4 hrs under vacuum, no stabilizer. From the text: The self-catalysis of α-lipoic acid takes place by the activation of disulfide with a carboxylic acid. Thus, we hypothesized that introduction of a functional group with higher electron density than disulfide will act as a potential competitor of disulfide, thereby suppressing initiation. […] However, the liquid undergoes ultrafast polymerization when brought into contact with water (FIG. 1) to yield an adhesive polymer. We surmise that due to its higher hydration energy, L4 becomes solvated as it comes in contact with water, leading to disulfide activation by the carboxylic acids. This approach provides an adhesive precursor suitable for spray, brush or injection mode of application. […] The coated PET was heated at 100° C. for 4 hrs under vacuum. The heat created a stable, sticky viscoelastic polymer, showing that the stabilizer molecules are also effective at high temperatures. By comparison, for example, pure α-lipoic acid treated under similar conditions also forms a sticky polymer, but within 2-3 days becomes a solid crystalline spot indicating depolymerization of the polymer. Although a stabilizer is needed in many applications that require a prolonged stability, the poly(asparagusic acid) without the stabilizer is sufficiently stable for some uses. […]

The nature of series [4]: Lap shear tissue adhesion on wet bovine pericardium. Particulars: adhesive with 14 mol % L2 vs 7 mol %. The procedure: An atomized spray was initially chosen, as it allows for quick evaporation of ethanol to increase the concentration of the mixture rapidly and eliminate any undesired flow of the adhesive solution on the tissue surfaces. A solution of L1 and L2 (7 mol %) was prepared and sprayed on two pieces of tissue surfaces (40 μL in 1 cm^2) and the two pieces were immediately brought into contact. After forming the lap joints, they were incubated for 2 minutes in PBS at 37° C. for further curing of the polymer network. The lap shear strength after 2 minutes on wet bovine pericardium tissue was >100 kPa, which was only slightly lower than medical-grade superglue (See FIG. 3A). […] The failure mode analyses of the lap joints was performed by applying N-bromo succinimide to the failed tissue surfaces to visually indicate by charge transfer complexation of disulfide functionality and therefore the presence of adhesive polymer. […] The enhanced lap shear strength at longer incubation time is consistent with the enhanced cohesive strength of the polymer network as observed in the rheology analysis of the wet polymer (see FIG. 2E).
Lap shear tissue adhesion was also performed with L3 on both wet bovine pericardium and pig skin.
To study the effect of stabilizer concentration on tissue adhesion strength, another lap shear test was performed with a higher L2 concentration (14 mol %). […]

Molecules are shown by their SMILES.

Regarding `O=C(O)CCCCC1CCSS1` (stereo not drawn) [L1, α-lipoic acid], in series [1], the “time until sticky polymer converted to solid monomeric precipitate (depolymerization)” value was below 5 min. The gel formation entry in series [2] is on record as “did not form a gel”. Besides, the “time until sticky polymer becomes solid crystalline spot (depolymerization)” value in series [3] lay within 2 to 3 days.

In the case of `O=C(CCCCC1CCSS1)ON1C(=O)CCC1=O` (stereo not shown) [L2, NHS-derivatized lipoic acid], in series [4], the “shear strength at higher stabilizer concentration” value was “No significant difference”.
